Assay results: US10501516B2, “Peptide compound” (TAKEDA PHARMACEUTICAL COMPANY LIMITED, priority 2016, dated 2019)
Square brackets hold non-standard residues; d marks the D form. Side chains are listed from the residue outwards. Peptide text beside a SMILES is read from it. * marks the point of attachment. C18 diacid = O=C(O)CCCCCCCCCCCCCCCCC(=O)*; Palmitoyl = CCCCCCCCCCCCCCCC(=O)*; αMeF = C[C@](N)(Cc1ccccc1)C(=O)O; Iva = CC[C@](C)(N)C(=O)O; Aib = CC(C)(N)C(=O)O

What was measured:
human NPY2R = biological target: T1, human NPY2R (Homo sapiens, UniProt P49146); experiment: Reporter assay of human NPY2R gene (agonist activity, decrease in intracellular cAMP as index); type: cell-based; conditions: Cre-luc reporter, hNPY2R CHO-K1 cells, forskolin 1.2 μM, 4 hours; read-out: Agonist activity (EC50) hY2R
T1 construct: expressed in transfected cells; host or cells: CHO-K1 Cre-luc reporter cells (pAKKO1114/hNPY2R#481 No. 88 cells)
T1 sequence (P49146 1-381): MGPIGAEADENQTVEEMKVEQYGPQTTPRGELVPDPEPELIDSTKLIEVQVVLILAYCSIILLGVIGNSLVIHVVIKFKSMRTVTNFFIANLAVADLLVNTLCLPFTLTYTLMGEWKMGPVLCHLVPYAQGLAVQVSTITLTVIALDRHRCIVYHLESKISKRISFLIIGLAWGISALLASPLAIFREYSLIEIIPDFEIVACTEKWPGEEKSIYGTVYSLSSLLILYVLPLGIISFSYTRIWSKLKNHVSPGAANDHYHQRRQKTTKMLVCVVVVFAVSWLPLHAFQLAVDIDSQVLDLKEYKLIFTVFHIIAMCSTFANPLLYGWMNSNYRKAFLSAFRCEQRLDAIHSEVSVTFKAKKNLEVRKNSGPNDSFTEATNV
Excerpt: (§1) Evaluation of Agonist Activity Against Human NPY2R, Human GIPR, and Human GLP-1R Using Change in Intracellular cAMP Concentration as Index
The human NPY2R gene having a sequence identical to the sequence of GenBank Accession No. AC104407 was cloned into pAKKO1114 vector to prepare hNPY2R/pAKKO1114. Next, pGL4.29 (Promega) was introduced to CHO-K1 cells, which were then screened with hygromycin to construct Cre-luc reporter cells. These cells were cotransfected with hNPY2R/pAKKO1114 and pcDNA3.1 (Life Technologies Corp.), and the cells were screened with geneticin. Next, a cell line induced to express luciferase, i.e., pAKKO1114/hNPY2R#481 No. 88 cells, were selected from the obtained transformants by the addition of human PYY (3-36).
The pAKKO1114/hNPY2R#481 No. 88 cells were inoculated at a cell density of 25 μL/well (5,000 cells/well) to a 384-well white plate (Corning, 3570), and cultured overnight in Ham F12 medium containing 10% fetal bovine serum, 100 U/mL penicillin and 100 μg/mL streptomycin in a CO2 incubator of 37° C. On the next day, the medium was removed, and an assay medium (Ham F12 medium containing 0.1% BSA, 100 U/mL penicillin and 100 μg/mL streptomycin) containing forskolin (final concentration: 1.2 μM) was added at a concentration of 25 μL/well to the cells. Next, an assay medium containing a test compound was added at a concentration of 5 μL/well to the cells, and the resultant cells were incubated for 4 hours in a CO2 incubator of 37° C. to give the final concentration of 1 μM. SteadyGlo (Promega) was added thereto at a concentration of 30 μL/well, and the mixture was left standing for 20 minutes with light shielded. The luciferase activity was measured using a plate reader Envision (PerkinElmer). The luciferase activity from the addition of DMSO was defined as 100%, and the luciferase activity from the addition of 1 μM human PYY(3-36) instead of the test compound was defined as 0%. The NPY2R agonist activity was calculated with a decrease in intracellular cAMP concentration as an index.

male C57BL/6J mouse = experiment: Evaluation of feeding suppressive action in mice; type: in vivo; conditions: 30 nmol/kg s.c. once a day for 3 days; 3-days cumulative food consumption vs solvent control
Experimental: The feeding suppressive activity of a test compound was examined by the method described below.
The test compound was dissolved at a concentration of 30 or 100 nmol/2 mL in a solvent (10% DMSO-containing physiological saline). The test compound solution was subcutaneously administered at a dose of 2 mL/kg to the back of each male C57BL/6J mouse at 8-9 weeks of age (20-26° C., allowed to take food and water ad libitum; raised in the 12-hour bright-12-hour dark cycle). The administration was performed once a day for 3 days. After the administration, the mouse was individually raised in a rearing cage, and given previously weighed food; food consumption for 3 days after the start of administration was measured. The food consumption was calculated by subtracting the amount of remaining food from the weight of the food given on the day of the start of administration. When the food consumption of a control group receiving administration of the solvent alone was regarded as a suppression rate of 0%, the feeding suppressive activity of each test compound was evaluated on the basis of 3-days cumulative food consumption after the start of administration. The food intake suppression rate (%) of the test compound was defined as (Food consumption of the control group−Food consumption of the test compound-administered group)/Food consumption of the control group×100.

human GIPR = biological target: T2, human GIPR (Homo sapiens, UniProt P48546); experiment: Reporter assay of human GIPR gene (agonist activity, intracellular cAMP as index); type: cell-based; conditions: Cre-luc reporter, hGIPR/CHO-K1 cells, 4 hours
T2 construct: expressed in transfected cells; host or cells: CHO-K1 Cre-luc reporter cells (hGIPR/CHO-K1, also called hGIPR/CRE-LUC/CHO-K1)
T2 sequence (P48546 22-466): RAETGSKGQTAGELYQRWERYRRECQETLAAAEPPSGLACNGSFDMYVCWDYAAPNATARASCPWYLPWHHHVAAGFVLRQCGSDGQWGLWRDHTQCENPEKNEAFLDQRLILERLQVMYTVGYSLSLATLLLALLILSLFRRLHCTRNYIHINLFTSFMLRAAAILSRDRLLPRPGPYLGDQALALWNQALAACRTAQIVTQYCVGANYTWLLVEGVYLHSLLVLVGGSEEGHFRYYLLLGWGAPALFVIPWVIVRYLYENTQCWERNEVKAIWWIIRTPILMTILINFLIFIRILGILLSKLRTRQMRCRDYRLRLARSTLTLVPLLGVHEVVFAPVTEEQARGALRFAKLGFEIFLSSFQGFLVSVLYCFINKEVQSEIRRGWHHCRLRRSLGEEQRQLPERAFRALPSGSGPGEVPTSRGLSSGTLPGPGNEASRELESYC
Excerpt: as §1
The human GIPR gene having a sequence identical to the sequence of GenBank Accession No. U39231 was cloned into pMSRα-neo vector to prepare hGIPR/pMSRα-neo. This vector was introduced to the Cre-luc reporter cells obtained in (1) to obtain transformants. Next, a cell line induced to express luciferase, i.e., hGIPR/CHO-K1 cells, were selected from the obtained transformants by the addition of GIP.
The hGIPR/CRE-LUC/CHO-K1 cells or the hGLP-1R/Crel cells were inoculated at a cell density of 25 μL/well (5,000 cells/well) to a 384-well white plate (Corning, 3570), and cultured overnight in Ham F12 medium containing 10% fetal bovine serum, 100 U/mL penicillin and 100 μg/mL streptomycin in a CO2 incubator of 37° C. On the next day, a medium containing a test compound was added at a concentration of 5 μL/well to the cells, and the resultant cells were incubated for 4 hours in a CO2 incubator of 37° C. to give the final concentration of 1 μM. SteadyGlo (Promega) was added thereto at a concentration of 30 μL/well, and the mixture was shaken with light shielded. After 30 minutes, the luciferase activity was measured using a plate reader Envision (PerkinElmer). For the GIPR agonist activity, the luciferase activity in the presence of 10 μM GIP was defined as 100%, and the luciferase activity from the addition of DMSO instead of the test compound was defined as 0%. The GIPR agonist activity was calculated with a rise in intracellular cAMP concentration as an index.

EC50 (human NPY2R) [nM] | EC50 (human GIPR) [nM] | SMILES | Rate of feeding suppression (%) (male C57BL/6J mouse)
2.1 | – | CC[C@H](C)[C@H](NC(=O)C(C)(C)NC(=O)[C@H](CCCCNC(=O)CNC(=O)CNC(=O)CNC(=O)CNC(=O)CCCCCCCCCCCCCCCCC(=O)O)NC(=O)[C@H](CC(=O)O)NC(=O)[C@H](CO)NC(=O)[C@@H](NC(=O)[C@](C)(Cc1ccccc1)NC(=O)[C@@H](NC(=O)CNC(=O)[C@H](CCC(=O)O)NC(=O)C(C)(C)NC(=O)[C@@H](N)Cc1ccc(O)cc1)[C@@H](C)O)[C@@H](C)O)C(=O)NC(C)(C)C(=O)N[C@@H](CC(C)C)C(=O)N[C@@H](CC(=O)O)C(=O)N[C@@H](CCCCN)C(=O)N[C@@H](CCC(N)=O)C(=O)N[C@@H](CCCNC(=N)N)C(=O)N[C@@H](CCC(N)=O)C(=O)N[C@@](C)(CC)C(=O)N[C@@H](CCC(=O)O)C(=O)N[C@@H](Cc1ccccc1)C(=O)N[C@H](C(=O)N[C@@H](CCCNC(=N)N)C(=O)N[C@@H](Cc1c[nH]cn1)C(=O)N[C@@H](CC(C)C)C(=O)N[C@@H](CC(C)C)C(=O)N[C@@H](CC(N)=O)C(=O)N[C@@H](CCCCN)C(=O)NC(C)(C)C(=O)N[C@H](C(=O)N[C@@H](CCCNC(=N)N)C(=O)N[C@@H](CCC(N)=O)C(=O)N[C@@H](CCCNC(=N)N)C(=O)N[C@@H](Cc1ccc(O)cc1)C(N)=O)[C@@H](C)O)C(C)C [Example 8] (H-Y[Aib]EGT[αMeF]TSDK([Gly-Gly-Gly-Gly-C18 diacid])[Aib]I[Aib]LDKQRQ[Iva]EFVRHLLNK[Aib]TRQRY-NH2) | –
– | 0.041 | CCCCCCCCCCCCCCCC(=O)NCC(=O)NCC(=O)NCC(=O)NCC(=O)NCCCC[C@H](NC(=O)[C@H](CC(=O)O)NC(=O)[C@H](CO)NC(=O)[C@@H](NC(=O)[C@](C)(Cc1ccccc1)NC(=O)[C@@H](NC(=O)CNC(=O)[C@H](CCC(=O)O)NC(=O)C(C)(C)NC(=O)[C@@H](N)Cc1ccc(O)cc1)[C@@H](C)O)[C@@H](C)O)C(=O)NC(C)(C)C(=O)N[C@H](C(=O)NC(C)(C)C(=O)N[C@@H](CC(C)C)C(=O)N[C@@H](CC(=O)O)C(=O)N[C@@H](CCCCN)C(=O)N[C@@H](CCC(N)=O)C(=O)N[C@@H](C)C(=O)N[C@@H](CCC(N)=O)C(=O)N[C@@](C)(CC)C(=O)N[C@@H](CCC(=O)O)C(=O)N[C@@H](Cc1ccccc1)C(=O)N[C@H](C(=O)N[C@@H](CCCNC(=N)N)C(=O)N[C@@H](Cc1c[nH]cn1)C(=O)N[C@@H](CC(C)C)C(=O)N[C@@H](CC(C)C)C(=O)N[C@@H](CC(N)=O)C(=O)N[C@@H](CCCCN)C(=O)NC(C)(C)C(=O)N[C@H](C(=O)N[C@@H](CCCNC(=N)N)C(=O)N[C@@H](CCC(N)=O)C(=O)N[C@@H](CCCNC(=N)N)C(=O)N[C@@H](Cc1ccc(O)cc1)C(N)=O)[C@@H](C)O)C(C)C)[C@@H](C)CC [Example 27] (H-Y[Aib]EGT[αMeF]TSDK([Gly-Gly-Gly-Gly-Palmitoyl])[Aib]I[Aib]LDKQAQ[Iva]EFVRHLLNK[Aib]TRQRY-NH2) | −41.6
– | 0.041 | CCCCCCCCCCCCCCCC(=O)NCC(=O)NCC(=O)NCC(=O)NCC(=O)NCCCC[C@H](NC(=O)[C@H](CC(=O)O)NC(=O)[C@H](CO)NC(=O)[C@@H](NC(=O)[C@](C)(Cc1ccccc1)NC(=O)[C@@H](NC(=O)CNC(=O)[C@H](CCC(=O)O)NC(=O)C(C)(C)NC(=O)[C@@H](N)Cc1ccc(O)cc1)[C@@H](C)O)[C@@H](C)O)C(=O)N[C@@H](CO)C(=O)N[C@H](C(=O)NC(C)(C)C(=O)N[C@@H](CC(C)C)C(=O)N[C@@H](CCC(=O)O)C(=O)N[C@@H](CCCCN)C(=O)N[C@@H](CCC(N)=O)C(=O)N[C@@H](CCCNC(=N)N)C(=O)N[C@@H](CCC(N)=O)C(=O)N[C@@](C)(CC)C(=O)N[C@@H](CCC(=O)O)C(=O)N[C@@H](Cc1ccccc1)C(=O)N[C@H](C(=O)N[C@@H](CCCNC(=N)N)C(=O)N[C@@H](Cc1c[nH]cn1)C(=O)N[C@@H](CC(C)C)C(=O)N[C@@H](CC(C)C)C(=O)N[C@@H](CC(N)=O)C(=O)N[C@@H](CCCCN)C(=O)NC(C)(C)C(=O)N[C@H](C(=O)N[C@@H](CCCNC(=N)N)C(=O)N[C@@H](CCC(N)=O)C(=O)N[C@@H](CCCNC(=N)N)C(=O)N[C@@H](Cc1ccc(O)cc1)C(N)=O)[C@@H](C)O)C(C)C)[C@@H](C)CC [Example 39] (H-Y[Aib]EGT[αMeF]TSDK([Gly-Gly-Gly-Gly-Palmitoyl])SI[Aib]LEKQRQ[Iva]EFVRHLLNK[Aib]TRQRY-NH2) | −49.6
